Reference: article PMC10403513, “Tasmanian devil cathelicidins exhibit anticancer activity against Devil Facial Tumour Disease (DFTD) cells” (Scientific Reports, 2023)
No end group written: not given here.

Assays:
DFT1 1426 cells [1] = format: cell-based, Tasmanian devil (Sarcophilus harrisii)
Protocol: The DFT1 cell line 1426, derived from a primary DFT1 tumour, was obtained from Menzies Institute for Medical Research, University of Tasmania. The cell line was maintained in RPMI 1640 media with 2 mM L-glutamine (Gibco) supplemented with 10% AmnioMax II (Gibco), 10% heat-inactivated foetal bovine serum (FBS) and 1% penicillin/streptomycin (Sigma-Aldrich), in T75 flasks (Nunc) at 35 °C 5% CO2. Cells were passaged using trypsin–EDTA (Sigma-Aldrich) when 90% confluent.
Toxicity of seven Tasmanian devil cathelicidins against DFT1 1426 cells was determined for twofold dilutions from 500 to 15.62 µg/mL, and four different timepoints (12, 18, 24 and 36 h). Confluent DFT1 1426 cells (passage 22) were re-suspended in RPMI 1640 with 10% FBS and 10% AmnioMax II at a concentration of 5 × 10^5 cells/mL, and 100μL seeded into each well of a sterile flat-bottom 96 well plate (Corning), with individual plates for each timepoint (12, 18, 24 and 36 h). All plates were incubated for 24 h at 35 °C 5% CO2 prior to the cytotoxicity test.
At 0 h, 100 μL of each peptide dilution was then added to each plate in quadruplicate for all timepoints (12, 18, 24 and 36 h), resulting in a final peptide concentrations of 500 μg/mL, 250 μg/mL, 125 μg/mL, 62.50 μg/mL, 31.25 μg/mL and 15.62 μg/mL. […] An untreated growth control of RPMI 1640, a positive control of dimethylsulfoxide (DMSO) (15%) and sterility control of RPMI 1640 only (no cells) were also included for each time point.
For the 12 h timepoint, 10% alamarBlue was immediately added to each well of the plate after addition of the peptide. For the remaining timepoints, plates were incubated for an additional 6, 12 or 24 h after addition of the peptides, then 10% alamarBlue added to each well. For all timepoints, after the addition of alamarBlue cells were incubated for a further 12 h, resulting in a total peptide incubation period of 12, 18, 24 and 36 h. Absorbance of alamarBlue for all timepoints was determined at 570 nm and 630 nm on a Biotek 800 TS microplate reader. Cell viability was calculated according to manufacturer’s instructions and expressed as a percentage of cell survival compared to the untreated growth control.
A one-sample, one-tailed t-test was used to test for significant difference in viability between treated cells and the negative growth control. A one sample, two-tailed t-test was also conducted to ensure there was no significant difference in viability between the negative growth control and the cells treated with the solvent only. Statistical analysis was conducted in R (R Development Core Team 2021).

human red blood cells = details: cited from earlier work
Description: Cathelicidins have been isolated from many vertebrate taxa[34]–[37]. However, they have undergone gene expansion in marsupials due to the need for additional protection of immunologically naïve young during development in the pouch. […] During development within the pouch, young are exposed to diverse microbial flora, some of which are pathogenic. This has likely encouraged the lineage-specific expansion of cathelicidins in marsupials, resulting in mult ...

DFT1 1426 cells [2] = assay: Ingenuity Pathway Analysis (canonical pathways) of DE genes in treated DFT1 1426 cells; format: cell-based, Tasmanian devil (Sarcophilus harrisii); details: DE genes of cells treated with 500 μg/mL for 10 h
Protocol: (§1) Over-representation analysis of Biological Processes was conducted in clusterProfiler v3.18.1[57]. Statistical significance was adjusted for multiple comparisons using the Benjamini–Hochberg method, and terms were considered significant when p-adj < 0.05. To remove general terms, gene sets larger than 200 were removed, and the simplify function was used to remove redundant GO terms. Further pathway analysis was conducted in IPA (Qiagen)[58], using mammal as the species type and nervous system for the tissue/cell type.

DFT1 1426 cells [3] = assay: RNAseq differential gene expression in peptide-treated DFT1 1426 cells; format: cell-based, Tasmanian devil (Sarcophilus harrisii); details: 500 μg/mL, 10 h, n = 3, vs vehicle control
Protocol: RNAseq was used to characterize the mechanisms underlying the anticancer activity of the peptides. Confluent DFT1 1426 cells (passage number 25) were re-suspended at a concentration of 5 × 10^5 cells/ml and 1 mL seeded into each well of a sterile flat-bottom polystyrene 12-well plate (Corning). Following incubation for 24 h at 35 °C 5% CO2, media was aspirated from the cells and replaced with 500 μL of RPMI 1640 with 2 mM L-glutamine, 10% FBS and 10% AmnioMax II. 500 μL of each 1 mg/mL peptide solution (Saha-CATH1 to 7) was then added to the plate in triplicate, to give a final peptide concentration of 500 μg/mL. […] A vehicle control was also added to the plate in triplicate.
The plate was then incubated for a further 10 h at 35 °C in 5% CO2. This incubation period was selected as the cytotoxicity assay indicated it was sublethal for most of the peptides and would maintain sufficient cell viability to extract intact RNA. Media was then aspirated from the cells, which were washed twice with Dulbecco’s phosphate buffered saline (DPBS) (Sigma-Aldrich).
Total RNA was extracted from each replicate of the peptide-treated and vehicle control cells (n = 3) using the RNeasy mini kit (Qiagen) with cell lysis directly in each well of the 12 well plate. Total RNA was quality assessed using the RNA nano 6000 kit on the Agilent Bioanalyzer with all samples displaying a RIN score between 5 and 9. In total, 24 RNA samples corresponding to three treatments per peptide (Saha-CATH1 to 7) and a vehicle control were submitted to Ramaciotti Centre for Genomics (The University of New South Wales) for sequencing. Illumina TruSeq mRNA libraries were prepared for all samples, which were sequenced as 2 × 150 bp paired-end reads across an SP flowcell on the NovaSeq6000.
Raw reads were quality assessed using FastQC v0.11.8[47], then quality and length trimmed using Trimmomatic v0.39[48] using default parameters. Trimmed reads for each treatment (n = 3) and the control (n = 3) were aligned to the Tasmanian devil reference genome v7.0 (NCBI: GCA_000189315.1[49] using STAR v2.7.8a[50]. Alignments for each treatment were summarized into gene counts using featureCounts in the subread package v1.5.1[51].
Gene counts were used as input for differential expression analysis in R[52]. Genes with less than 50 counts across all samples were removed from the analysis, as these were unlikely to be biologically relevant and lacked sufficient statistical power. Firstly, the data was normalized by trimmed mean of M values (TMM) using edgeR v3.32.1[53] to account for any composition bias between libraries and to give an effective library size for downstream analysis. Multidimensional scaling (MDS) was used to check for variation between treatments using limma v3.36.0[54]. Expression levels were then normalized using upper-quartile normalization in EDAseq v2.24.0[55] to account for differences in distribution between lanes, such as sequencing depth. Differential expression analysis was performed using voom in the limma v3.36.0 package.
as §1

human cell line A549 = details: cited from earlier work
Protocol: Here we aimed to identify cathelicidin candidates for future development as anti-DFTD therapeutics. Four Tasmanian devil cathelicidins (Saha-CATH3, 4, 5 and 6) were toxic to DFT1 1426 cells at high concentrations: Saha-CATH3 at concentrations ≥ 62.5 µg/mL; Saha-CATH4 at 500 µg/mL; Saha-CATH5 at concentrations ≥ 125 µg/mL and Saha-CATH6 at concentrations ≥ 250 µg/mL. Previous studies have shown that two of these peptides (Saha-CATH3 and 4) are non-toxic to human cell line A549[44]. The other two (Saha-CATH5 and 6) reduced cell viability at high concentrations (500 µg/mL), resulting in 42% and 5 ...

KRMGIFHLFWAGLRKLGNLIKNKIQQGIENFLG [Saha-CATH3]
decrease in cell viability compared to the growth control (DFT1 1426 cells [1]; 500 μg/mL, 36 h, DFT1 1426 cells, alamarBlue, quadruplicate): more than 50% | incubation period required before exhibiting a similar level of toxicity to Saha-CATH5 (DFT1 1426 cells [1]; 500 μg/mL, DFT1 1426 cells): 18 h | cytotoxic concentration (cell viability reduced by more than 50%) (DFT1 1426 cells [1]; 18 h): 62.5 to 250 µg/mL | concentration toxic to DFT1 1426 cells (DFT1 1426 cells [1]; summary in the discussion): ≥ 62.5 µg/mL | haemolysis of human red blood cells (in words) (human red blood cells): not haemolytic | IPA z-score, Cyclins and Cell Cycle Regulation (DFT1 1426 cells [2]): -2.333 | IPA z-score, Th17 activation pathway (DFT1 1426 cells [2]): 3.317 | Fold change, gene CCND3 (DFT1 1426 cells [3]; G1-S phase transition, RNAseq): 0.62 | Fold change, gene CCNE1 (DFT1 1426 cells [3]; G1-S phase transition, RNAseq): 0.57 | Fold change, gene CCNE2 (DFT1 1426 cells [3]; G1-S phase transition, RNAseq): 0.61 | Fold change, gene E2F2 (DFT1 1426 cells [3]; cyclin transcription factor, RNAseq): 0.48 | Fold change, gene IL1R1 (DFT1 1426 cells [3]; cytokine receptor, RNAseq): 2.41 | Fold change, gene IL6R (DFT1 1426 cells [3]; cytokine receptor, RNAseq): 2.88 | Fold change, gene IL6 (DFT1 1426 cells [3]; cytokine, RNAseq): 4.38 | Fold change, gene MYD88 (DFT1 1426 cells [3]; immune signaling, RNAseq): 2.64 | percentage of DE genes (DFT1 1426 cells [3]; of 15,548 genes): 12.63% | Fold change, gene RUNX1 (DFT1 1426 cells [3]; transcription factor, RNAseq): 2.71 | toxicity to human cell line A549 (in words) (human cell line A549): non-toxic
